# How the values were obtained:
# L929 cells = assay: TNF High Throughput Screen (TNF-α driven apoptosis assay); assay type: cell-based, mouse; conditions: Mus musculus, human TNF-α + actinomycin D, read-out: TNFα IC50
# Summary of the method: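 Mouse L929 cells were pretreated with compound for 2 hours, then given human TNF-α plus actinomycin D (40 μg/ml final) overnight. Surviving cells were stained with crystal violet, solubilised in methanol and read at 595 nm. Values are % inhibition at 1 μM (0 = TNF alone, 100 = no TNF) or IC50 from sigmoidal fits of dilution series.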
# [1] = Pharmacokinetic parameters; assay type: in vivo; conditions: in vivo
compound,measurement,setting,value
N#Cc1cccc(C(C(=O)NCC(c2ccccc2)c2ccccc2)N(CCc2c[nH]cn2)C(=O)c2ccccc2C(=O)c2ccccc2)c1 (stereo not drawn) [Compound 44],IC50,L929 cells,410 nM
same,bioavailability,"[1]; po, species not given",26%
same,half-life,"[1]; unit and species not given, read-out: Pharmacokinetic Parameters t1/2 (converted)",138 min
